Measurements: patent US20120083501A1, “COMPOUNDS FOR TREATING NEURODEGENERATIVE DISEASES” (priority 2010, published 2012)
pIC50: −log10 of the molar value.

Molecular target: T1, BACE1 (Homo sapiens, UniProt P56817)
T1 construct: endogenous in cells; host or cells: HEK-293 cells stably transfected with wild type APP695
Experiment: Cellular BACE1 Inhibition Assay (in vitro cellular Amyloidβ 1-40 production, HTRF immunoassay)
Assay type: cell-based
Details: inhibition of Amyloidβ 1-40 production; HEK-293 cells stably transfected with wild type APP695; 48 hours incubation; single assay or mean of multiple assays
Description: The BACE inhibition properties of the compounds of the invention may be determined by the following in vitro cellular Amyloidβ 1-40 production assay.
Inhibition of Amyloidβ 1-40 production was determined by incubating cells with compound for 48 hours and quantifying the level of Amyloidβ 1-40 using an homogeneous time-resolved fluorescence (“HTRF”) immunoassay.
Materials and Methods: HEK-293 cells stably transfected with a DNA construct containing the coding sequence for the wild type APP695 sequence were grown in Dulbecco's Modified Eagle Medium (“DMEM”) supplemented with 10% fetal bovine serum, penicillin/streptomycin and 150 μg/mL G418. Cells were plated in 96-well plates at 35,000 cells/well and allowed to attach for 8-12 hours. Media was changed to DMEM supplemented with 10% fetal bovine serum, penicillin/streptomycin 15 minutes prior to compound addition. Diluted compounds were then added at a final concentration of 0.5% DMSO. After 48 hours, 4 μL of media from each well was added to a corresponding well of a 384 well plate (Perkin Elmer Cat#6008280) containing the HTRF reagents. HTRF reagents were obtained from the CisBio Amyloidβ 1-40 peptide assay kit (Cat# 62B40PEC) and were prepared as follows anti-peptide β (1-40)-Cryptate and anti-peptide β (1-40)-XL655 were stored in 2 plate aliquots at −80° C. Diluent and Reconstitution buffer were stored at 4° C. Aliquots of the two antibodies were diluted 1:100 with Reconstitution buffer, and this mixture was diluted 1:2 with Diluent. 12 μL of the reagent mixture was added to the required wells of the 384 well assay plate. The assay plate was incubated at 4° C. for 17 hours and then analyzed for fluorescence at 665 and 620 nm. The reported IC50 below may be from a single assay or the mean of multiple assays.

T1 sequence (P56817 46-501): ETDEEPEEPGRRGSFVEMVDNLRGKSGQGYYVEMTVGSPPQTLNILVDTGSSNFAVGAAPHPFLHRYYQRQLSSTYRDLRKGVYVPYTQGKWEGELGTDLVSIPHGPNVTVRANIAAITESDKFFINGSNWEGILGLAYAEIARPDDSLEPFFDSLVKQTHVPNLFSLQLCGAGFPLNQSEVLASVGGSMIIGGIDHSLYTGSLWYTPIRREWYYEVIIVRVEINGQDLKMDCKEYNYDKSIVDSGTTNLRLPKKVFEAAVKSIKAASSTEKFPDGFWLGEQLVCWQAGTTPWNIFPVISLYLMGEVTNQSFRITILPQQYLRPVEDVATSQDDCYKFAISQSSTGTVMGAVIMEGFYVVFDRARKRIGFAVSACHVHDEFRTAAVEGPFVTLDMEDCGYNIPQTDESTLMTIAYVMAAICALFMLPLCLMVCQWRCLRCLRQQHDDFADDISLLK

Row | SMILES | pIC50
1 | CN1C(=O)C2(N=C1N)c1cc(-c3cc(F)cc(Cl)c3)ccc1OC1CCCC[C@@H]12 (stereo partly drawn) [Example 12] | 7.94
2 | CN1C(=O)C2(N=C1N)c1cc(-c3cc(F)cc(Cl)c3)ccc1O[C@H]1CCCC[C@H]12 (relative stereo) [Example 32, cis 2-amino-7′-(3-chloro-5-fluorophenyl)-1-methyl-1′,2′,3′,4′,4a′,9a′-hexahydrospiro[imidazole-4,9′-xanthen]-5(1H)-one] | 6.37
3 | CN1C(=O)[C@]2(N=C1N)c1cc(-c3cncc(C#N)c3)ccc1O[C@H]1CCCO[C@@H]12 [Example 79, 5-((4S,4a′S,10a′R)-2-amino-1-methyl-5-oxo-1,3′,4′,4a′,5,10a′-hexahydro-2′H-spiro[imidazole-4,10′-pyrano[3,2-b]chromen]-8′-yl)nicotinonitrile] | 8.37
4 | CN1C(=O)C2(N=C1N)c1cc(-c3cncc(Cl)c3)ccc1OC1CC(O)CCC12 (stereo not drawn) [Example 3, 2-amino-7′-(5-chloropyridin-3-yl)-3′-hydroxy-1-methyl-1′,2′,3′,4′,4a′,9a′-hexahydrospiro[imidazole-4,9′-xanthen]-5(1H)-one] | 8.89
5 | COc1ccc2c(c1)C1(N=C(N)N(C)C1=O)[C@H]1COCC[C@@H]1C2 (stereo partly drawn) [Example 107, (4aS,10aS)-2′-amino-8-methoxy-1′-methyl-1,3,4,4a,5,10a-hexahydrospiro[benzo[g]isochromene-10,4′-imidazol]-5′(1′H)-one] | 6.10
6 | CN1C(=O)C2(N=C1N)c1cc(-c3cc(F)cc(Cl)c3)ccc1OC1CC(=O)CCC12 (stereo not drawn) [Example 8, 2-amino-7′-(3-chloro-5-fluorophenyl)-1-methyl-1′,4′,4a′,9a′-tetrahydrospiro[imidazole-4,9′-xanthene]-3′,5(1H, 2′H)-dione] | 8.26
7 | CN1C(=O)C2(N=C1N)c1cc(-c3cncnc3)ccc1OC1CC(O)CCC12 (stereo not drawn) [Example 6, 2-amino-3′-hydroxy-1-methyl-7′-(pyrimidin-5-yl)-1′,2′,3′,4′,4a′,9a′-hexahydrospiro[imidazole-4,9′-xanthen]-5(1H)-one] | 7.44
8 | CN1C(=O)C2(N=C1N)c1cc(-c3cccc(OC(F)F)c3)ccc1OC1CC(F)(F)CCC12 (stereo not drawn) [Example 36, 2-amino-7′-(3-(difluoromethoxy)phenyl)-3′,3′-difluoro-1-methyl-1′,2′,3′,4′,4a′,9a′-hexahydrospiro[imidazole-4,9′-xanthen]-5(1H)-one] | 6.66
9 | CN1C(=O)[C@]2(N=C1N)c1cc(-c3cncc(Cl)c3)ccc1O[C@H]1CCCO[C@@H]12 [Example 78, (4S,4a′S,10a′R)-2-amino-8′-(5-chloropyridin-3-yl)-1-methyl-3′,4′,4a′,10a′-tetrahydro-2′H-spiro[imidazole-4,10′-pyrano[3,2-b]chromen]-5(1H)-one] | 8.82
10 | CN1C(=O)C2(N=C1N)c1cc(-c3cccnc3F)ccc1OC1CCC(F)(F)CC12 (stereo not drawn) [Example 41, 2-amino-2′,2′-difluoro-7′-(2-fluoropyridin-3-yl)-1-methyl-1′,2′,3′,4′,4a′,9a′-hexahydrospiro[imidazole-4,9′-xanthen]-5(1H)-one] | 7.38
11 | CN1C(=O)[C@]2(N=C1N)c1cc(-c3cccnc3F)ccc1O[C@@]1(C)CCCO[C@H]12 (racemic) [Example 55, (4S*,4a′S*,10a′S*)-2-amino-8′-(2-fluoropyridin-3-yl)-1,4a′-dimethyl-3′,4′,4a′,10a′-tetrahydro-2′H-spiro[imidazole-4,10′-pyrano[3,2-b]chromen]-5 (1H)-one] | 7.74
12 | CN1C(=O)C2(N=C1N)c1cc(-c3cccnc3F)ccc1O[C@H]1CC(O)CC[C@@H]12 (stereo partly drawn) [Example 96, (4a′S,9a′R)-2-amino-7′-(2-fluoropyridin-3-yl)-3′-hydroxy-1-methyl-1′,2′,3′,4′,4a′,9a′-hexahydrospiro[imidazole-4,9′-xanthen]-5(1H)-one] | 8.41
13 | CN1C(=O)C2(N=C1N)c1cc(-c3cc(F)cc(Cl)c3)ccc1OC1CC(OCC3CC3)CCC12 (stereo not drawn) [Example 29, 2-amino-7′-(3-chloro-5-fluorophenyl)-3′-(cyclopropylmethoxy)-1-methyl-1′,2′,3′,4′,4a′,9a′-hexahydrospiro[imidazole-4,9′-xanthen]-5(1H)-one] | 6.26
14 | CN1C(=O)[C@]2(N=C1N)c1cc(-c3cccnc3F)ccc1O[C@@]1(C)CCCO[C@@H]12 (relative stereo) [Example 64, (4S*,4a′S*,10a′R*)-2-amino-8′-(2-fluoropyridin-3-yl)-1,4a′-dimethyl-3′,4′,4a′,10a′-tetrahydro-2′H-spiro[imidazole-4,10′-pyrano[3,2-b]chromen]-5(1H)-one] | 8.74
15 | CN1C(=O)C2(N=C1N)c1cc(-c3cccnc3F)ccc1O[C@H]1CCCC[C@H]12 (relative stereo) [Example 14, cis 2-amino-7′-(2-fluoropyridin-3-yl)-1-methyl-1′,2′,3′,4′,4a′,9a′-hexahydrospiro[imidazole-4,9′-xanthen]-5(1H)-one] | 7.32
16 | C[C@H]1OCCC2Oc3ccc(-c4cncc(Cl)c4)cc3[C@]3(N=C(N)N(C)C3=O)[C@@H]21 (mixture of isomers) [Example 50, (1′R*,4R*,4a′R*,10a′R*)-2-amino-8′45-chloropyridin-3-yl)-1,1′-dimethyl-3′,4′,4a′,10a'-tetrahydro-1′H-spiro[imidazole-4,10′-pyrano[4,3-b]chromen]-5(1H)-one] | 7.88
17 | CN1C(=O)C2(N=C1N)c1cc(-c3cc(F)cc(Cl)c3)ccc1OC1CC3(CCC12)OCCO3 (stereo not drawn) [Example 10, 2″-amino-7′-(3-chloro-5-fluorophenyl)-1″-methyl-1″,2′,4′,4′a,5″,9′a-hexahydro-1′H-dispiro[1,3-dioxolane-2,3′-xanthene-9′,4″-imidazole]-5″-one] | 6.77
18 | CN1C(=O)C2(N=C1N)c1cc(-c3cncc(Cl)c3)ccc1O[C@H]1CCCC[C@H]12 (relative stereo) [Example 33, cis 2-amino-7′-(5-chloropyridin-3-yl)-1-methyl-1′,2′,3′,4′,4a′,9a′-hexahydrospiro[imidazole-4,9′-xanthen]-5(1H)-one] | 7.49
19 | CN1CC[C@@H]2Oc3ccc(-c4cc(F)cc(Cl)c4)cc3C3(N=C(N)N(C)C3=O)[C@@H]2C1 (stereo partly drawn) [Example 34, (4aS,10aS)-2′-amino-8-(3-chloro-5-fluorophenyl)-1′,2-dimethyl-1,2,3,4,4a,10a-hexahydrospiro[chromeno[3,2-c]pyridine-10,4′-imidazol]-5′(1′H)-one] | 5.78
20 | CN1C(=O)C2(N=C1N)c1cc(-c3cccc(Cl)c3)ccc1OC1CC(F)(F)CCC12 (stereo not drawn) [Example 35, 2-amino-7′-(3-chlorophenyl)-3′,3′-difluoro-1-methyl-1′,2′,3′,4′,4a′,9a′-hexahydrospiro[imidazole-4,9′-xanthen]-5(1H)-one] | 6.57
21 | CCOC1CCC2C(C1)Oc1ccc(-c3cc(F)cc(Cl)c3)cc1C21N=C(N)N(C)C1=O (stereo not drawn) [Example 28, 2-amino-7′-(3-chloro-5-fluorophenyl)-3′-ethoxy-1-methyl-l′,2′,3′,4′,4a′,9a′-hexahydrospiro[imidazole-4,9′-xanthen]-5(1H)-one] | 7.29
22 | CN1C(=O)C2(N=C1N)c1cc(-c3cc(F)cc(Cl)c3)ccc1OC1CC(F)(F)CCC12 (stereo not drawn) [Example 20, 2-amino-7′-(3-chloro-5-fluorophenyl)-3′,3′-difluoro-1-methyl-1′,2′,3′,4′,4a′,9a′-hexahydrospiro[imidazole-4,9′-xanthen]-5(1H)-one] | 6.76
23 | CN1C(=O)C2(N=C1N)c1cc(-c3cncc(C(F)(F)F)c3)ccc1OC1CC(O)CCC12 (stereo not drawn) [Example 5, 2-amino-3′-hydroxy-1-methyl-7′-(5-(trifluoromethyl)pyridin-3-yl)-1′,2′,3′,4′,4a′,9a′-hexahydrospiro[imidazole-4,9′-xanthen]-5(1H)-one] | 8.21
24 | CN1C(=O)C2(N=C1N)c1cc(-c3cccc(Cl)c3)ccc1OC1CC(O)CCC12 (stereo not drawn) [Example 2, 2-amino-7′-(3-chlorophenyl)-3′-hydroxy-1-methyl-1′,2′,3′,4′,4a′,9a′-hexahydrospiro[imidazole-4,9′-xanthen]-5(1H)-one] | 8.82
25 | CN1C(=O)[C@]2(N=C1N)c1cc(-c3cncc(C#N)c3)ccc1O[C@H]1CCCO[C@@]12C [Example 86, 5-((4S,4a′S,10a′R)-2-amino-1,10a′-dimethyl-5-oxo-1,3′,4′,4a′,5,10a′-hexahydro-2′H-spiro[imidazole-4,10′-pyrano[3,2-b]chromen]-8′-yl)nicotinonitrile] | 8.34
26 | CN1C(=O)[C@]2(N=C1N)c1cc(-c3cncc(Cl)c3)ccc1O[C@]1(C)CCCO[C@H]12 (relative stereo) [Example 62, (4S*,4a′R*,10a′S*)-2-amino-8′-(5-chloropyridin-3-yl)-1,4a′-dimethyl-3′,4′,4a′,10a′-tetrahydro-2′H-spiro[imidazole-4,10′-pyrano[3,2-b]chromen]-5(1H)-one] | 8.64
27 | COC1CC[C@@H]2[C@@H](C1)Oc1ccc(-c3cc(F)cc(Cl)c3)cc1C21N=C(N)N(C)C1=O (stereo partly drawn) [Example 30, (4a′R,9a′S)-2-amino-7′-(3-chloro-5-fluorophenyl)-3′-methoxy-1-methyl-1′,2′,3′,4′,4a′,9a′-hexahydrospiro[imidazole-4,9′-xanthen]-5(1H)-one] | 7.65
